Read-outs that look alike come from different tables or passages of the source.
Experiments:
α4β2 and α4β4 nAChRs = conditions: range over both agonists and both receptors; cited from earlier work
[1] = biological target: α4β2F119Q, α4β2S113R and wild-type (WT) hα4β2 receptors; design: species or system human; conditions: read-out: [3H]epibatidine binding affinities; range over α4β2F119Q, α4β2S113R and WT hα4β2 transiently expressed in HEK 293 cells
human α4β2 nAChRs = human α4β2 nAChRs (Homo sapiens, UniProt P17787+P43681); experiment: Photoaffinity labeling; type: binding; conditions: ∼1 nM probe, 254 nm, α4 or β2 subunit
Sequence of human α4β2 nAChRs (P17787 26-502): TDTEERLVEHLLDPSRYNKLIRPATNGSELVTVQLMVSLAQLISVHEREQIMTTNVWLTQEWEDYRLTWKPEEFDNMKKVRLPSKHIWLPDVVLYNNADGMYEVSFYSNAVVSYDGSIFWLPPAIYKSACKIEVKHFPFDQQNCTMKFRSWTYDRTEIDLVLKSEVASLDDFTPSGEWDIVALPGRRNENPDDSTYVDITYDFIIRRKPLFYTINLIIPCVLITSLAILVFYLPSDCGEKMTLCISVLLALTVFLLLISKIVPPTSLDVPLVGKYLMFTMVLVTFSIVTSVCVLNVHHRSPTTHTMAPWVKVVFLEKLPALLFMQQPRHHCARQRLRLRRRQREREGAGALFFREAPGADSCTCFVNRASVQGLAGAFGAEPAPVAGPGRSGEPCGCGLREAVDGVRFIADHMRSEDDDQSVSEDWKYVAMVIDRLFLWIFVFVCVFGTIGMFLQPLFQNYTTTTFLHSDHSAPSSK
Sequence of human α4β2 nAChRs (P43681 29-627): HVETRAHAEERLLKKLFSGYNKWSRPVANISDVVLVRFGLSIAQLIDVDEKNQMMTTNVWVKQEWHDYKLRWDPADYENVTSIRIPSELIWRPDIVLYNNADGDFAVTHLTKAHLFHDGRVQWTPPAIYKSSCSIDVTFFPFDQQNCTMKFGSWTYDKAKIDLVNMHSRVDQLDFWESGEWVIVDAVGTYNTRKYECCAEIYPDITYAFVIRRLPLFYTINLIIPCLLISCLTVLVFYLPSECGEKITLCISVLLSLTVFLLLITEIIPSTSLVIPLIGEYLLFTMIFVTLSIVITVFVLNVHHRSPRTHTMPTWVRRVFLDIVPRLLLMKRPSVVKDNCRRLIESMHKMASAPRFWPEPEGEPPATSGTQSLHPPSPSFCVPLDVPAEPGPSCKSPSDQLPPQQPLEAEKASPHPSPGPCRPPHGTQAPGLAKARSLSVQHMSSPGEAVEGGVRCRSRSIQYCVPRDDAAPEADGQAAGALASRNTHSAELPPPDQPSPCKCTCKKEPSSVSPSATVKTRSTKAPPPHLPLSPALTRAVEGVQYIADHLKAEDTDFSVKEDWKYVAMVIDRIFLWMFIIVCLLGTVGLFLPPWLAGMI

α4 with β2S113R nAChR = α4 with β2S113R nAChR (Homo sapiens, UniProt P17787+P43681, S138R); experiment: Two-electrode voltage clamp of receptors expressed in Xenopus oocytes; type: cell-based
Sequence of α4 with β2S113R nAChR (P43681 29-627 limits assumed): as the sequence (P43681 29-627) above
Sequence of α4 with β2S113R nAChR (P17787 26-502 S138R): as the sequence (P17787 26-502) above, with S113R counted along it

[2] = biological target: α4 with wild-type β2 nAChR, (α4)2(β2)3 (Homo sapiens, UniProt P17787+P43681); experiment: as above; type: cell-based
Sequence of α4 with wild-type β2 nAChR, (α4)2(β2)3 (P43681 29-627 limits assumed): as the sequence (P43681 29-627) above
Sequence of α4 with wild-type β2 nAChR, (α4)2(β2)3 (P17787 26-502): as the sequence (P17787 26-502) above

α4 with β2F119Q nAChR = α4 with β2F119Q nAChR (Homo sapiens, UniProt P17787+P43681, F144Q); experiment: as above; type: cell-based
Sequence of α4 with β2F119Q nAChR (P43681 29-627, stated change not applied): as the sequence (P43681 29-627) above
Sequence of α4 with β2F119Q nAChR (P17787 26-502 F144Q): as the sequence (P17787 26-502) above, with F119Q counted along it

α4β2F119Q receptors = α4β2F119Q receptors (Homo sapiens, UniProt P17787+P43681, F144Q); type: binding; conditions: preincubation with 100 nM epibatidine
Sequence of α4β2F119Q receptors (P43681 29-627, stated change not applied): as the sequence (P43681 29-627) above
Sequence of α4β2F119Q receptors (P17787 26-502 F144Q): as the sequence (P17787 26-502) above, with F119Q counted along it

rat α4β4 nAChRs = rat α4β4 nAChRs (Rattus norvegicus, UniProt P09483+P12392); type: binding
Sequence of rat α4β4 nAChRs (P09483 31-630): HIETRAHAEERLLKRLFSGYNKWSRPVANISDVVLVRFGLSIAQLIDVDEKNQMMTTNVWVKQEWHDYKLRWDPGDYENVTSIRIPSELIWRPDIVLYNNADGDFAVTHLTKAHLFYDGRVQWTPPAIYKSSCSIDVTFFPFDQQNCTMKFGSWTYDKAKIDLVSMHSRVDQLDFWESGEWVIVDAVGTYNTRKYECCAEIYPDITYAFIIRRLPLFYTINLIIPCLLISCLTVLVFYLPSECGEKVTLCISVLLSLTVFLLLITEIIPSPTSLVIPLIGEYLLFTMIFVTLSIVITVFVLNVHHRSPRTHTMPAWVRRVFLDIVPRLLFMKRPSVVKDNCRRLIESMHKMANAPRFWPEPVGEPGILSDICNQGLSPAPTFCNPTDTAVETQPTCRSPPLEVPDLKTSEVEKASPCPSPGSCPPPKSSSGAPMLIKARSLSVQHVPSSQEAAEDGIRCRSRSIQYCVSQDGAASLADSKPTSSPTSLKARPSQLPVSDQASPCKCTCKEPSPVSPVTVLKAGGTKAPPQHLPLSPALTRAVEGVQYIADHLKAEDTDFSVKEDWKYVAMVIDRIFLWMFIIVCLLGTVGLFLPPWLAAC
Sequence of rat α4β4 nAChRs (P12392 25-495): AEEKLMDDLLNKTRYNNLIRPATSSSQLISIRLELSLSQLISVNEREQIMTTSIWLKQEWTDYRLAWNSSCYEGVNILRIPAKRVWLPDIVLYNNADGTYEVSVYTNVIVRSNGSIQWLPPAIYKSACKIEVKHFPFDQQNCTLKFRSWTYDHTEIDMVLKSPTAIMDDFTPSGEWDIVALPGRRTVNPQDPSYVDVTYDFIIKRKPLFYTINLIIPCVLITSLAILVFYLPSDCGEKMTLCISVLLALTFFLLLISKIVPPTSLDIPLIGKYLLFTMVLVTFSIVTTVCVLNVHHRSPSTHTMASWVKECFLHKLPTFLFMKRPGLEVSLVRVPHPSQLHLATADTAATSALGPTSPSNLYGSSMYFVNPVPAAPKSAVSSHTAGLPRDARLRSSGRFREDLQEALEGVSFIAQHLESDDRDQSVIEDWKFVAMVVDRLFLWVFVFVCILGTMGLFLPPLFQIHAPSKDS

[3] = biological target: nicotinic (α4)2(β2)3 receptors; conditions: cited from earlier work
α4β4 receptor = conditions: read-out: IC50 inhibiting binding of [3H]epibatidine; cited from earlier work
[4] = read-out: EC50 of activation, 5 oocytes

Molecule: Ic1ccc(C2CC3CCC2N3)cn1 (stereo not shown) [iodoepibatidine]
- binding affinity (α4β2 and α4β4 nAChRs): 0.062 to 24 nM

Molecule: Clc1ccc(C2CC3CCC2N3)cn1 (stereo not shown) [[^3H]epibatidine]
- Kd [1]: 0.4 to 0.7 nM

Molecule: [^125I]epibatidine
- pattern of photoincorporation (human α4β2 nAChRs): very little if any photoincorporation

Molecule: CC(=O)OCC[N+](C)(C)C [ACh, Acetylcholine chloride]
- actual amplitude of the ACh response (α4 with β2S113R nAChR; 1 mM ACh, single oocyte trace): -3.3 μA
- actual amplitude of the ACh response ([2]; 1 mM ACh, single oocyte trace): -0.8 μA
- actual amplitude of the ACh response (α4 with β2F119Q nAChR; 1 mM ACh, single oocyte trace): -0.03 μA

Molecule: Clc1ccc(C2CC3CCC2N3)cn1 (stereo not shown) [epibatidine]
- effect on [125I]epibatidine labeling in the β2F119Q subunit (α4β2F119Q receptors): completely eliminated labeling
- effect on labeling by radiolabeled agonist (rat α4β4 nAChRs): complete elimination of labeling

Molecule: Cl.Cl.Ic1cncc(OC[C@@H]2CCN2)c1 [5I-A-85380, 5-iodo-A-85380 dihydrochloride]
- binding affinity (α4β2 and α4β4 nAChRs): 0.062 to 24 nM
- EC50 (α4 with β2S113R nAChR; read-out: EC50 of activation, 7 oocytes): 30 ± 7 nM
- EC50 [3]: ~10 nM
- maximal response ([3]; compared with ACh): larger than that for ACh itself
- EC50 [2, 4]: 23 ± 2 nM
- IC50 (α4β4 receptor): 24 nM
- EC50 (α4 with β2F119Q nAChR; [4]): 338 ± 77 nM

Molecule: [125I]c1cncc(OCC2CCN2)c1 (stereo not shown) [5[^125I]A-85380]
- pattern of photoincorporation (human α4β2 nAChRs): very little if any photoincorporation
- pattern of photoincorporation (rat α4β4 nAChRs; 1 nM probe, 254 nm, 30 or 15 min): incorporated selectively into the β4 subunit

Molecule: CN1CCC[C@H]1c1cccnc1 [nicotine]
- effect on labeling by radiolabeled agonist (rat α4β4 nAChRs; 15 min preincubation with 100 μM nicotine or 100 nM epibatidine): complete elimination of labeling
- reduction of [125I]epibatidine labeling of β4 subunit and β4′ fragment (rat α4β4 nAChRs; co-application of 100 μM nicotine, γ-counting of excised gel bands): > 50%

Source: publication PMC2744590 (Biochimica et biophysica acta, 2009)
